# Experiment: pH of the filtrated solutions (pH indication paper)
# Assay type: physicochemical
# Details: pH of the filtrated solution
# Experimental: (§1) Samples are filtered and diluted (in a mixture of acetonitrile/water (1/1)) for LC analysis. Solubilities are calculated with the use of a calibration line. Furthermore, the pH values of the filtrated solutions are determined using pH indication paper.
row,SMILES,pH
1,CN1C(=O)c2c(nn(Cc3ccc(-c4cccc(F)n4)cc3)c2Nc2ccccc2)N2C1=N[C@@H]1CCC[C@@H]12.O=C(O)CCCCC(=O)O [Adipate Salt 1],4
2,CN1C(=O)c2c(nn(Cc3ccc(-c4cccc(F)n4)cc3)c2Nc2ccccc2)N2C1=N[C@@H]1CCC[C@@H]12.CN1C(=O)c2c(nn(Cc3ccc(-c4cccc(F)n4)cc3)c2Nc2ccccc2)N2C1=N[C@@H]1CCC[C@@H]12.O=C(O)CCCCC(=O)O [Adipate Salt 2],4-5
3,CN1C(=O)c2c(nn(Cc3ccc(-c4cccc(F)n4)cc3)c2Nc2ccccc2)N2C1=N[C@@H]1CCC[C@@H]12.O=C(O)CCCCC(=O)O [Adipate Salt 3],4-5
4,CN1C(=O)c2c(nn(Cc3ccc(-c4cccc(F)n4)cc3)c2Nc2ccccc2)N2C1=N[C@@H]1CCC[C@@H]12.Nc1ccc(C(=O)O)c(O)c1 [Aminosalicylate Salt 1],5
5,CN1C(=O)c2c(nn(Cc3ccc(-c4cccc(F)n4)cc3)c2Nc2ccccc2)N2C1=N[C@@H]1CCC[C@@H]12.O=C(O)c1ccccc1 [Benzoate Salt 1],5
6,CN1C(=O)c2c(nn(Cc3ccc(-c4cccc(F)n4)cc3)c2Nc2ccccc2)N2C1=N[C@@H]1CCC[C@@H]12.O=S(=O)(O)c1ccccc1 [Besylate Salt 1],1
7,CC1(C)C2CCC1(CS(=O)(=O)O)C(=O)C2.CN1C(=O)c2c(nn(Cc3ccc(-c4cccc(F)n4)cc3)c2Nc2ccccc2)N2C1=N[C@@H]1CCC[C@@H]12 [Camsylate Salt 1],1
8,CC1(C)C2CCC1(CS(=O)(=O)O)C(=O)C2.CN1C(=O)c2c(nn(Cc3ccc(-c4cccc(F)n4)cc3)c2Nc2ccccc2)N2C1=N[C@@H]1CCC[C@@H]12 [Camsylate Salt 2],1
9,CCCCCC(=O)O.CN1C(=O)c2c(nn(Cc3ccc(-c4cccc(F)n4)cc3)c2Nc2ccccc2)N2C1=N[C@@H]1CCC[C@@H]12 [Caproate Salt 1],5
10,CCCCCCCC(=O)O.CN1C(=O)c2c(nn(Cc3ccc(-c4cccc(F)n4)cc3)c2Nc2ccccc2)N2C1=N[C@@H]1CCC[C@@H]12 [Caprylate Salt 1],5
11,CN1C(=O)c2c(nn(Cc3ccc(-c4cccc(F)n4)cc3)c2Nc2ccccc2)N2C1=N[C@@H]1CCC[C@@H]12.O=C(O)C(Cl)Cl [Dichloroacetate Salt 1],4-5
12,CN1C(=O)c2c(nn(Cc3ccc(-c4cccc(F)n4)cc3)c2Nc2ccccc2)N2C1=N[C@@H]1CCC[C@@H]12.O=S(=O)(O)CCS(=O)(=O)O [Edisylate Salt 1],1
13,CCS(=O)(=O)O.CN1C(=O)c2c(nn(Cc3ccc(-c4cccc(F)n4)cc3)c2Nc2ccccc2)N2C1=N[C@@H]1CCC[C@@H]12 [Esylate Salt 1],5
14,CN1C(=O)c2c(nn(Cc3ccc(-c4cccc(F)n4)cc3)c2Nc2ccccc2)N2C1=N[C@@H]1CCC[C@@H]12.CN1C(=O)c2c(nn(Cc3ccc(-c4cccc(F)n4)cc3)c2Nc2ccccc2)N2C1=N[C@@H]1CCC[C@@H]12.O=C(O)/C=C/C(=O)O [Fumarate Salt 1],2
15,CN1C(=O)c2c(nn(Cc3ccc(-c4cccc(F)n4)cc3)c2Nc2ccccc2)N2C1=N[C@@H]1CCC[C@@H]12.O=C(O)[C@@H](O)[C@H](O)[C@H](O)[C@@H](O)C(=O)O [Galactarate Salt 1],5
16,CN1C(=O)c2c(nn(Cc3ccc(-c4cccc(F)n4)cc3)c2Nc2ccccc2)N2C1=N[C@@H]1CCC[C@@H]12.Cl [HCl Salt 1],4
17,CN1C(=O)c2c(nn(Cc3ccc(-c4cccc(F)n4)cc3)c2Nc2ccccc2)N2C1=N[C@@H]1CCC[C@@H]12.Cl [HCl Salt 2],4-5
18,CN1C(=O)c2c(nn(Cc3ccc(-c4cccc(F)n4)cc3)c2Nc2ccccc2)N2C1=N[C@@H]1CCC[C@@H]12.Cl [HCl Salt 3],3
19,CN1C(=O)c2c(nn(Cc3ccc(-c4cccc(F)n4)cc3)c2Nc2ccccc2)N2C1=N[C@@H]1CCC[C@@H]12.Cl [HCl Salt 4],4
20,CN1C(=O)c2c(nn(Cc3ccc(-c4cccc(F)n4)cc3)c2Nc2ccccc2)N2C1=N[C@@H]1CCC[C@@H]12.O=C(O)c1ccncc1 [Isonicotinate Salt 1],5
21,CC(O)C(=O)O.CN1C(=O)c2c(nn(Cc3ccc(-c4cccc(F)n4)cc3)c2Nc2ccccc2)N2C1=N[C@@H]1CCC[C@@H]12 [Lactate Salt 1],4-5
22,CCCCCCCCCCCC(=O)O.CN1C(=O)c2c(nn(Cc3ccc(-c4cccc(F)n4)cc3)c2Nc2ccccc2)N2C1=N[C@@H]1CCC[C@@H]12 [Laurate Salt 1],5
23,CN1C(=O)c2c(nn(Cc3ccc(-c4cccc(F)n4)cc3)c2Nc2ccccc2)N2C1=N[C@@H]1CCC[C@@H]12.O=C(O)C[C@H](O)C(=O)O [Malate Salt 1],4
24,CN1C(=O)c2c(nn(Cc3ccc(-c4cccc(F)n4)cc3)c2Nc2ccccc2)N2C1=N[C@@H]1CCC[C@@H]12.O=C(O)C(O)c1ccccc1 [Mandelate Salt 1],2

row,SMILES,pH
1,CN1C(=O)c2c(nn(Cc3ccc(-c4cccc(F)n4)cc3)c2Nc2ccccc2)N2C1=N[C@@H]1CCC[C@@H]12.O=C(O)C(O)c1ccccc1 [Mandelate Salt 2],4
2,CN1C(=O)c2c(nn(Cc3ccc(-c4cccc(F)n4)cc3)c2Nc2ccccc2)N2C1=N[C@@H]1CCC[C@@H]12.CS(=O)(=O)O [Mesylate Salt 1],5
3,CN1C(=O)c2c(nn(Cc3ccc(-c4cccc(F)n4)cc3)c2Nc2ccccc2)N2C1=N[C@@H]1CCC[C@@H]12.O=S(=O)(O)c1cccc2c(S(=O)(=O)O)cccc12 [Napadisylate Salt 1],1
4,CN1C(=O)c2c(nn(Cc3ccc(-c4cccc(F)n4)cc3)c2Nc2ccccc2)N2C1=N[C@@H]1CCC[C@@H]12.O=C(O)c1cccnc1 [Nicotinate Salt 1],5
5,CN1C(=O)c2c(nn(Cc3ccc(-c4cccc(F)n4)cc3)c2Nc2ccccc2)N2C1=N[C@@H]1CCC[C@@H]12.O=C(O)c1cc(=O)[nH]c(=O)[nH]1.O=C(O)c1cc(=O)[nH]c(=O)[nH]1 [Orotate Salt 1],5
6,CN1C(=O)c2c(nn(Cc3ccc(-c4cccc(F)n4)cc3)c2Nc2ccccc2)N2C1=N[C@@H]1CCC[C@@H]12.O=C(O)C(=O)O [Oxalate Salt 1],4
7,CN1C(=O)c2c(nn(Cc3ccc(-c4cccc(F)n4)cc3)c2Nc2ccccc2)N2C1=N[C@@H]1CCC[C@@H]12.O=C(O)C(=O)O [Oxalate Salt 2],1
8,CN1C(=O)c2c(nn(Cc3ccc(-c4cccc(F)n4)cc3)c2Nc2ccccc2)N2C1=N[C@@H]1CCC[C@@H]12.O=C(O)C(=O)O [Oxalate Salt 3],1
9,CN1C(=O)c2c(nn(Cc3ccc(-c4cccc(F)n4)cc3)c2Nc2ccccc2)N2C1=N[C@@H]1CCC[C@@H]12.O=C(O)CCC(=O)C(=O)O [Oxo-glutarate Salt 1],3
10,CCCCCCCCCCCCCCCC(=O)O.CN1C(=O)c2c(nn(Cc3ccc(-c4cccc(F)n4)cc3)c2Nc2ccccc2)N2C1=N[C@@H]1CCC[C@@H]12 [Palmitate Salt 1],5-6
11,CN1C(=O)c2c(nn(Cc3ccc(-c4cccc(F)n4)cc3)c2Nc2ccccc2)N2C1=N[C@@H]1CCC[C@@H]12.O=P(O)(O)O [Phosphate Salt Control],5
12,CCC(=O)O.CN1C(=O)c2c(nn(Cc3ccc(-c4cccc(F)n4)cc3)c2Nc2ccccc2)N2C1=N[C@@H]1CCC[C@@H]12 [Propionate Salt 1],5
13,CN1C(=O)c2c(nn(Cc3ccc(-c4cccc(F)n4)cc3)c2Nc2ccccc2)N2C1=N[C@@H]1CCC[C@@H]12.O=C(O)c1ccccc1O [Salicylate Salt 1],5
14,CN1C(=O)c2c(nn(Cc3ccc(-c4cccc(F)n4)cc3)c2Nc2ccccc2)N2C1=N[C@@H]1CCC[C@@H]12.O=C(O)c1ccccc1O [Salicylate Salt 2],4-5
15,CN1C(=O)c2c(nn(Cc3ccc(-c4cccc(F)n4)cc3)c2Nc2ccccc2)N2C1=N[C@@H]1CCC[C@@H]12.O=C(O)CCC(=O)O [Succinate Salt 1],4
16,CN1C(=O)c2c(nn(Cc3ccc(-c4cccc(F)n4)cc3)c2Nc2ccccc2)N2C1=N[C@@H]1CCC[C@@H]12.O=C(O)CCC(=O)O [Succinate Salt 2],4
17,CN1C(=O)c2c(nn(Cc3ccc(-c4cccc(F)n4)cc3)c2Nc2ccccc2)N2C1=N[C@@H]1CCC[C@@H]12.O=S(=O)(O)O [Sulfate Salt 1],1
18,CN1C(=O)c2c(nn(Cc3ccc(-c4cccc(F)n4)cc3)c2Nc2ccccc2)N2C1=N[C@@H]1CCC[C@@H]12.O=C(O)C(O)C(O)C(=O)O [Tartrate Salt 1],4-5
19,CN1C(=O)c2c(nn(Cc3ccc(-c4cccc(F)n4)cc3)c2Nc2ccccc2)N2C1=N[C@@H]1CCC[C@@H]12.Cc1ccc(S(=O)(=O)O)cc1 [Tosylate Salt 1],1
20,CN1C(=O)c2c(nn(Cc3ccc(-c4cccc(F)n4)cc3)c2Nc2ccccc2)N2C1=N[C@@H]1CCC[C@@H]12.Cc1ccc(S(=O)(=O)O)cc1 [Tosylate Salt 2],5
21,CN1C(=O)c2c(nn(Cc3ccc(-c4cccc(F)n4)cc3)c2Nc2ccccc2)N2C1=N[C@@H]1CCC[C@@H]12.O=C(O)C(F)(F)F [Trifluoroacetate Salt 1],7
22,CN1C(=O)c2c(nn(Cc3ccc(-c4cccc(F)n4)cc3)c2Nc2ccccc2)N2C1=N[C@@H]1CCC[C@@H]12.O=C(O)c1ccc2ccccc2c1O [Xinafoate Salt 1],7
23,CN1C(=O)c2c(nn(Cc3ccc(-c4cccc(F)n4)cc3)c2Nc2ccccc2)N2C1=N[C@@H]1CCC[C@@H]12.O=C(O)c1ccc2ccccc2c1O [Xinafoate Salt 2],7
24,CN1C(=O)c2c(nn(Cc3ccc(-c4cccc(F)n4)cc3)c2Nc2ccccc2)N2C1=N[C@@H]1CCC[C@@H]12.O=C(O)c1ccc2ccccc2c1O [Xinafoate Salt 3],7

# Same assay, conditions: pH of the filtrated solution, listed as 4-acetamido-benzoate Salt 1
row,SMILES,pH
1,CC(=O)Nc1ccc(C(=O)O)cc1.CN1C(=O)c2c(nn(Cc3ccc(-c4cccc(F)n4)cc3)c2Nc2ccccc2)N2C1=N[C@@H]1CCC[C@@H]12 [Acetamido Benzoate Salt 1],5

# Same assay, conditions: pH of the filtrated solution, listed as 4-acetamido-benzoate Salt 2
row,SMILES,pH
1,CC(=O)Nc1ccc(C(=O)O)cc1.CN1C(=O)c2c(nn(Cc3ccc(-c4cccc(F)n4)cc3)c2Nc2ccccc2)N2C1=N[C@@H]1CCC[C@@H]12 [Acetamido Benzoate Salt 2],4

# Experiment: Aqueous solubility of the salt crystals (shaking in water for 24 hours, LC analysis)
# Assay type: physicochemical
# Details: appearance of the sample after shaking in water for 24 hours (Slurry or Clear)
# Experimental: as §1
row,SMILES,Appearance
1,CN1C(=O)c2c(nn(Cc3ccc(-c4cccc(F)n4)cc3)c2Nc2ccccc2)N2C1=N[C@@H]1CCC[C@@H]12.Nc1ccc(C(=O)O)c(O)c1 [Aminosalicylate Salt 1],Slurry
